We go through eleven compounds from ChEMBL document CHEMBL3286257, “Development of second generation EP2 antagonists with high selectivity” (Eur J Med Chem, 2014).

The target of data set [1] is Prostaglandin E2 receptor EP2 subtype (Homo sapiens) (UniProt P43116). Briefly: Antagonist activity at EP2 receptor (unknown origin) expressed in rat C6 cells assessed as inhibition of PGE2-induced response. Format: cell-based.
The target in data set [2] is Prostaglandin E2 receptor EP4 subtype (Homo sapiens) (UniProt P35408). Briefly: Antagonist activity at EP4 receptor (unknown origin) expressed in rat C6 cells assessed as inhibition of PGE2-induced response. Format: cell-based.
The species entered for data set [3] is Homo sapiens. Kind of data set: Selectivity index, ratio of KB for EP4 receptor (unknown origin) to KB for EP2 receptor (unknown origin).
The target in data set [4] is T1, Prostaglandin D2 receptor (Homo sapiens) (UniProt Q13258).
T1 sequence (whole entry): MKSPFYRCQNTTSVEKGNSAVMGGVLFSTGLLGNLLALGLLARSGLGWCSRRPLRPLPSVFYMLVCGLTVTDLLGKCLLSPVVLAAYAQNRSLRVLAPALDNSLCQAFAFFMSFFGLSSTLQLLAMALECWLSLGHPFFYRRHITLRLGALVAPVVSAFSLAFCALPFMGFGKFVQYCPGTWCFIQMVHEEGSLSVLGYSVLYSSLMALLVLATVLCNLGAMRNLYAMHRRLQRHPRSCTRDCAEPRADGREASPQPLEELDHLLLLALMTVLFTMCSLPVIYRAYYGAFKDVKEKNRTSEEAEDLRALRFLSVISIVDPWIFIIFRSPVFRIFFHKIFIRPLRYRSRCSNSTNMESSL
Briefly: Antagonist activity at DP1 receptor (unknown origin) expressed in rat C6 cells by TR-FRET assay. Format: cell-based. A general note: Time-resolved FRET reads energy transfer from a long-lived donor to a nearby acceptor.

The species entered for data set [5] is Homo sapiens. Briefly: Selectivity index, ratio of KB for DP1 receptor (unknown origin) to KB for EP2 receptor (unknown origin).
Data set [6] has as its target Prostacyclin receptor (Homo sapiens) (UniProt P43119). Kind of data set: Antagonist activity at IP receptor (unknown origin) expressed in rat C6 cells by TR-FRET assay. Format: cell-based.
The species entered for data set [7] is Homo sapiens. Kind of data set: Selectivity index, ratio of KB for IP receptor (unknown origin) to KB for EP2 receptor (unknown origin).
In a further data set the test system is C6. Kind of data set: Cytotoxicity against rat C6 cells. Format: cell-based. Conditions: c6.
The next data set deals with EP2 receptor. Kind of data set: Therapeutic index, ratio of CC50 for rat C6 cells to KB for EP2 receptor (unknown origin). Format: cell-based. Conditions: read-out: TI.
A short description of data set [8]: Metabolic stability of the compound in human liver microsomes assessed as compound remaining at 10 uM after 15 mins. Format: ADME. Conditions: read-out: Stability. In general terms: Liver microsomes are vesicles of endoplasmic reticulum, rich in cytochrome P450 enzymes.
Data set [9] in a line: Metabolic stability of the compound in human liver microsomes assessed as compound remaining at 10 uM after 30 mins. Format: ADME. Conditions: read-out: Stability.
The nature of data set [10]: Metabolic stability of the compound in human liver microsomes assessed as compound remaining at 10 uM after 60 mins. Format: ADME. Conditions: read-out: Stability.
Data set [11] can be described thus: Metabolic stability of the compound in mouse liver microsomes assessed as compound remaining at 10 uM after 15 mins. Format: ADME. Conditions: read-out: Stability.
A short description of data set [12]: Metabolic stability of the compound in mouse liver microsomes assessed as compound remaining at 10 uM after 30 mins. Format: ADME. Conditions: read-out: Stability.
Data set [13] can be described thus: Metabolic stability of the compound in mouse liver microsomes assessed as compound remaining at 10 uM after 60 mins. Format: ADME. Conditions: read-out: Stability.
The nature of data set [14]: Aqueous solubility of the compound by nephelometry method. Format: physicochemical. Conditions: buffer.
The target of data set [15] is Prostaglandin E2 receptor EP2 subtype (Homo sapiens) (UniProt P43116). Briefly: Competitive antagonist activity at human EP2 receptor assessed as inhibition of PGE2-induced response.

≈ marks a conversion by molar mass, not a printed value.

Chain of Prostaglandin E2 receptor EP2 subtype (Homo sapiens) (P43116 whole entry): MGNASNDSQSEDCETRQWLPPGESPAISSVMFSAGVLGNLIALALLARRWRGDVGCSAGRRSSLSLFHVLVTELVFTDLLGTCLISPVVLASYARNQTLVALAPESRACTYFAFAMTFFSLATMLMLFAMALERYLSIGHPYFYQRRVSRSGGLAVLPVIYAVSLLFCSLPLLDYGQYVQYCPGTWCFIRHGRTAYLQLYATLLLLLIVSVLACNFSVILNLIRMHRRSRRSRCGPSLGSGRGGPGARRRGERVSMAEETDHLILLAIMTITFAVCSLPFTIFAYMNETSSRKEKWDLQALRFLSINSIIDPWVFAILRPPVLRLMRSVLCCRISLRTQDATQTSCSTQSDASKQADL
Chain of Prostacyclin receptor (Homo sapiens) (P43119 whole entry): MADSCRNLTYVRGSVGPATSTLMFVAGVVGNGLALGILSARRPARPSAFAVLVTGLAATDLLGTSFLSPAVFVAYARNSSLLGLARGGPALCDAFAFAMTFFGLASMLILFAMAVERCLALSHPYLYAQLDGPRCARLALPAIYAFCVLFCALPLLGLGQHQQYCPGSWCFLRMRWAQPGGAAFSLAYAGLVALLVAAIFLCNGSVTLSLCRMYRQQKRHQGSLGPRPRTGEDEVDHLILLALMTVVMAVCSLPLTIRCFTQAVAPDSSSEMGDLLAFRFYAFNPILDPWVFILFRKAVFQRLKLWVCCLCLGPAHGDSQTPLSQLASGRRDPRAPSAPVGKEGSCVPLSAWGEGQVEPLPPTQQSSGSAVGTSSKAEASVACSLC
Chain of Prostaglandin E2 receptor EP4 subtype (Homo sapiens) (P35408 whole entry): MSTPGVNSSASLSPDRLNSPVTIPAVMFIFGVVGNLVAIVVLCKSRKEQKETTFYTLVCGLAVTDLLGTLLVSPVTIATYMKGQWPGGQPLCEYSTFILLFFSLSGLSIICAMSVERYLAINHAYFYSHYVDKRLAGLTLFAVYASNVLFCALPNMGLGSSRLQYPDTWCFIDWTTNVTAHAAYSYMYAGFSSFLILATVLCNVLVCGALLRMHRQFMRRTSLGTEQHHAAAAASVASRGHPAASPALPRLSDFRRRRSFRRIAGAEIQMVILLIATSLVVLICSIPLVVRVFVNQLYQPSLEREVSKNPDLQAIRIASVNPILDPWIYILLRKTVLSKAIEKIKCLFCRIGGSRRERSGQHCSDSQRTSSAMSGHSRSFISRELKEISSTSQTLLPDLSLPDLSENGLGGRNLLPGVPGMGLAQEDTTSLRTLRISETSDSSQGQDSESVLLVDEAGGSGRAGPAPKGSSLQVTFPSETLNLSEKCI

Regarding `Cc1cc2ccccc2n1CCNC(=O)c1ccc(N2CCCCCC2)cc1`, the Kb (commonly the affinity of an antagonist, worked out from how it opposes an agonist) in [1] came to 0.0226 µM; in data set [2] it was 23.6 µM; in [4] it was 7.72 µM; in data set [6] it was 8.5 µM. Moreover, the Ratio was found to be 1040 in the data set listed under Homo sapiens [3], 342 in the data set listed under Homo sapiens [5] and 375 in the data set filed under Homo sapiens [7]. In the data set on C6, the 50% cytotoxic concentration (CC50) (usually the concentration giving 50% cytotoxicity) turned out to be 327 µM. In addition, the selectivity ratio in the data set with EP2 receptor amounted to 14500. In addition, the remaining at […], 10 µM in data set [8] was found to be 66%; in data set [11] it was 49%. Also, the remaining at 0.5 h, 10 µM in data set [9] was found to be 64%; in data set [12], 37%. Further, the values for the remaining at 1 h, 10 µM in data set [10] and in data set [13] were 28% and 12%, respectively. Moreover, in [14], the solubility (kinetic) (in general, the concentration staying in solution when a stock, usually in DMSO, is diluted into the medium) is under 25 µM.

Consider `Cc1cc2ccccc2n1CCNC(=O)c1ccc(N2CCOCC2)cc1`, for which the Kb in [1] amounted to 0.0096 µM; in data set [2], 21 µM; in data set [4], 5.21 µM; in data set [6], 1.98 µM; in [15] it was 0.0161 µM. For the same compound, the Ratio in the data set listed under Homo sapiens [3] came out at 2190; in the data set listed under Homo sapiens [5], 533; in the data set listed under Homo sapiens [7], 206. In the data set on C6, this compound showed a CC50 of 289 µM. Also, in the data set with EP2 receptor, the selectivity ratio came out at 30100. The remaining at […], 10 µM is 58% in data set [8] and 8% in [11]. Besides, the remaining at 0.5 h, 10 µM was found to be 38% in [9] and 5% in data set [12]. The remaining at 1 h, 10 µM in data set [10] stood at 22%; in [13] it was 0%. In addition, in data set [14], the solubility (kinetic) is 67 µM (≈ 24.4 µg/mL).

On to `Cc1[nH]c2ccccc2c1CCNC(=O)c1ccc(N2CCOCC2)cc1`, for which the Kb in data set [2] amounted to 75.6 µM; in data set [4], 7.79 µM; in data set [6], 85 µM. In the data set with C6, this compound had a CC50 of 311 µM. In the data set with EP2 receptor, the selectivity ratio was 10900. The remaining at […], 10 µM was determined as 75% in [8] and 37% in data set [11]. Also, the remaining at 0.5 h, 10 µM in data set [9] was 58%; in data set [12], 10%. Besides, the remaining at 1 h, 10 µM in data set [10] came to 40%; in data set [13], 0.5%. In data set [14], this compound returned a solubility (kinetic) of under 25 µM.

Regarding `Cc1cc2ccccc2n1CCNC(=O)c1ccc2c(c1)n(C)c(=O)n2C`, the Kb in [1] was 0.0209 µM; in data set [2], 36.1 µM; in data set [4], 6.29 µM; in [6] it was 25.2 µM. The results for the Ratio in the data set filed under Homo sapiens [3], in the data set filed under Homo sapiens [5] and in the data set filed under Homo sapiens [7] were 1730, 300 and 1200, respectively. This compound also returned a CC50 in the data set with C6 of 154 µM. The selectivity ratio in the data set with EP2 receptor was determined as 7370.

With `Cc1cc2ccccc2n1CCNC(=O)c1ccc(N2CCC(C(=O)O)CC2)cc1`, the Kb came to 0.0897 µM in data set [1] and 0.097 µM in [15]. The remaining at […], 10 µM in data set [8] and in data set [11] was 97% in each case. Moreover, the remaining at 0.5 h, 10 µM in data set [9] stood at 97%; in [12], 92%. The remaining at 1 h, 10 µM worked out at 95% in data set [10] and 86% in data set [13]. The solubility (kinetic) in data set [14] is over 750 µM.

As for `Cc1cc2ccccc2n1CCNC(=O)c1ccc(N2CCC(O)CC2)cc1`, the Kb in data set [1] was found to be 0.0268 µM; in data set [2], 70.3 µM; in [4] it was 4.62 µM; in [6] it was 18.1 µM. Further, the results for the Ratio in the data set filed under Homo sapiens [3], in the data set listed under Homo sapiens [5] and in the data set listed under Homo sapiens [7] were 2620, 172 and 675, respectively. In the data set with C6, this compound yielded a CC50 of 163 µM. Moreover, the selectivity ratio in the data set on EP2 receptor was 6080. In addition, the remaining at […], 10 µM was determined as 66% in data set [8] and 35% in [11]. The remaining at 0.5 h, 10 µM is 49% in data set [9] and 12% in data set [12]. Besides, the remaining at 1 h, 10 µM is 31% in data set [10] and 2% in data set [13]. The compound also had a kinetic solubility in data set [14] of 160 µM (≈ 60.4 µg/mL).

With `Cc1cc2ccccc2n1CCNC(=O)c1ccc(N2CCN(C)CC2)c(F)c1`, the Kb in data set [1] turned out to be 0.045 µM; in data set [2] it was 4.76 µM; in [4] it was 0.98 µM; in [6], 64 µM. Also, the Ratio in the data set filed under Homo sapiens [3] stood at 106; in the data set filed under Homo sapiens [5], 22; in the data set listed under Homo sapiens [7], 1420. The compound also yielded a CC50 in the data set with C6 of 300 µM. In addition, the selectivity ratio in the data set with EP2 receptor was determined as 6660.

With `Cc1cc2ccccc2n1CCNC(=O)c1ccc(N2CCCC2)cc1`, the Kb was 0.0247 µM in data set [1], 28.7 µM in data set [2], over 10 µM in data set [4] and 14.2 µM in [6]. Besides, the Ratio in the data set listed under Homo sapiens [3] is 1160; in the data set listed under Homo sapiens [5], over 516; in the data set listed under Homo sapiens [7], 570. This compound also came in with a CC50 in the data set on C6 of 337 µM. The selectivity ratio in the data set on EP2 receptor was 16100. Also, the remaining at […], 10 µM in data set [8] came to 22%; in data set [11] it was 52%. Further, the values for the remaining at 0.5 h, 10 µM in [9] and in data set [12] were 12% and 32%, respectively. Moreover, the remaining at 1 h, 10 µM in [10] was determined as 1.4%; in [13], 18%. In addition, the solubility (kinetic) in data set [14] is under 25 µM.

Regarding `Cc1[nH]c2ccccc2c1CCNC(=O)c1ccc(N(C)C)cc1`, the Kb in [1] was 0.0108 µM; in data set [2], 16.4 µM; in data set [4], 3.61 µM; in data set [6], 63.1 µM. Moreover, it took 320 µM to reach half-maximal cytotoxicity in the data set on C6 (CC50). Besides, the remaining at […], 10 µM was 34% in [8] and under 1% in data set [11]. Moreover, the remaining at 0.5 h, 10 µM in [9] turned out to be 17%; in data set [12] it was 0%. Besides, the figures for the remaining at 1 h, 10 µM in [10] and in [13] were 4% and 0%, respectively. The compound also displayed a solubility (kinetic) in [14] of under 25 µM.

On to `Cc1cc2ccccc2n1CCNC(=O)c1ccc(N2CCCCC2)cc1`, for which the antagonist dissociation constant (Kb) in data set [1] stood at 0.0094 µM; in data set [2], 30.2 µM; in [4], 2.57 µM; in [6], 3.4 µM. Besides, the Ratio in the data set listed under Homo sapiens [3] came to 3210; in the data set filed under Homo sapiens [5] it was 273; in the data set filed under Homo sapiens [7], 360. The CC50 in the data set with C6 came out at 315 µM. Also, the selectivity ratio in the data set with EP2 receptor turned out to be 33500. For the same compound, the remaining at […], 10 µM is 67% in [8] and 24% in data set [11]. Moreover, the remaining at 0.5 h, 10 µM in data set [9] turned out to be 42%; in [12] it was 18%. Further, the remaining at 1 h, 10 µM is 21% in data set [10] and 7% in data set [13]. This compound displayed a solubility (kinetic) in data set [14] of under 25 µM.

Take `CCCN(CCC)c1ccc(C(=O)NCCn2c(C)cc3ccccc32)cc1`: the antagonist dissociation constant (Kb) in [1] is 0.0119 µM; in [2], 15.5 µM; in data set [4] it was 3.55 µM; in data set [6], 1.12 µM. Also, the values for the Ratio in the data set listed under Homo sapiens [3], in the data set filed under Homo sapiens [5] and in the data set listed under Homo sapiens [7] were 1320, 298 and 95, respectively. In the data set with C6, the CC50 worked out at 332 µM. For the same compound, in the data set on EP2 receptor, the selectivity ratio was 28100. Further, the remaining at […], 10 µM is 40% in [8] and 30% in data set [11]. Also, the remaining at 0.5 h, 10 µM in data set [9] was found to be 20%; in [12], 26%. Besides, the figures for the remaining at 1 h, 10 µM in [10] and in [13] were 5% and 6%, respectively. In addition, the kinetic solubility in data set [14] is under 25 µM.
